Source: ChEMBL document CHEMBL2203083, “Facile synthesis and anticancer activity of C-10 non-acetal deoxoartemisinin dimers” (Bioorg Med Chem Lett, 2012)

System: Caco-2
Experiment: Cytotoxicity against human Caco2 cells assessed as cell viability after 48 hrs by MTT assay
Format: functional, cell-based
Settings: Caco-2, 48 h

C[C@H]1[C@@H](CC(=O)N(CCNC(=O)[C@@H](N)CCCCN)CC(=O)NCCN(CC(=O)OC(C)(C)C)C(=O)C[C@H]2O[C@@H]3O[C@@]4(C)CC[C@H]5[C@H](C)CC[C@@H]([C@H]2C)[C@@]35OO4)O[C@@H]2O[C@@]3(C)CC[C@H]4[C@H](C)CC[C@@H]1[C@@]24OO3
IC50: 3.58 µM

C[C@H]1[C@@H](CC(=O)N(CCNC(=O)OCC2c3ccccc3-c3ccccc32)CC(=O)OC(C)(C)C)O[C@@H]2O[C@@]3(C)CC[C@H]4[C@H](C)CC[C@@H]1[C@@]24OO3
IC50: 5.36 µM

C[C@H]1[C@@H](CC(=O)N(CCNC(=O)[C@H](CCCCNC(=O)OC(C)(C)C)NC(=O)OCC2c3ccccc3-c3ccccc32)CC(=O)OC(C)(C)C)O[C@@H]2O[C@@]3(C)CC[C@H]4[C@H](C)CC[C@@H]1[C@@]24OO3
IC50: 12 µM

C[C@H]1[C@@H](CC(=O)N(CCNC(=O)[C@H](CCCCN)NC(=O)OCC2c3ccccc3-c3ccccc32)CC(=O)OC(C)(C)C)O[C@@H]2O[C@@]3(C)CC[C@H]4[C@H](C)CC[C@@H]1[C@@]24OO3
IC50: 4.38 µM

C[C@H]1[C@@H](CC(=O)N(CCNC(=O)[C@@H](N)CCCCN)CC(=O)OC(C)(C)C)O[C@@H]2O[C@@]3(C)CC[C@H]4[C@H](C)CC[C@@H]1[C@@]24OO3
IC50: 14.7 µM

C[C@H]1[C@@H](CC(=O)N(CCNC(=O)OCC2c3ccccc3-c3ccccc32)CC(=O)NCCN(CC(=O)OC(C)(C)C)C(=O)C[C@H]2O[C@@H]3O[C@@]4(C)CC[C@H]5[C@H](C)CC[C@@H]([C@H]2C)[C@@]35OO4)O[C@@H]2O[C@@]3(C)CC[C@H]4[C@H](C)CC[C@@H]1[C@@]24OO3
IC50: 2.87 µM

C[C@H]1[C@@H](CC(=O)N(CCNC(=O)[C@H](CCCCNC(=O)OC(C)(C)C)NC(=O)OCC2c3ccccc3-c3ccccc32)CC(=O)NCCN(CC(=O)OC(C)(C)C)C(=O)C[C@H]2O[C@@H]3O[C@@]4(C)CC[C@H]5[C@H](C)CC[C@@H]([C@H]2C)[C@@]35OO4)O[C@@H]2O[C@@]3(C)CC[C@H]4[C@H](C)CC[C@@H]1[C@@]24OO3
IC50: 8.03 µM

C[C@H]1[C@@H](CC(=O)N(CCNC(=O)[C@H](CCCCN)NC(=O)OCC2c3ccccc3-c3ccccc32)CC(=O)NCCN(CC(=O)OC(C)(C)C)C(=O)C[C@H]2O[C@@H]3O[C@@]4(C)CC[C@H]5[C@H](C)CC[C@@H]([C@H]2C)[C@@]35OO4)O[C@@H]2O[C@@]3(C)CC[C@H]4[C@H](C)CC[C@@H]1[C@@]24OO3
IC50: 2.04 µM

C[C@H]1[C@@H](O)O[C@@H]2O[C@@]3(C)CC[C@H]4[C@H](C)CC[C@@H]1[C@@]24OO3 [ARTENIMOL]
IC50: 26.9 µM
